Data set [1] has as its target T1, PPARα (Homo sapiens, UniProt Q07869).
T1 construct: Receptor expression plasmid (GAL4-hPPARα, LBD GAL4-hPPARγ LBD, GAL4-hPPARδ LBD); expressed in transfected cells; host or cells: CV-1 cells
T1 sequence (Q07869 239-466 limits assumed): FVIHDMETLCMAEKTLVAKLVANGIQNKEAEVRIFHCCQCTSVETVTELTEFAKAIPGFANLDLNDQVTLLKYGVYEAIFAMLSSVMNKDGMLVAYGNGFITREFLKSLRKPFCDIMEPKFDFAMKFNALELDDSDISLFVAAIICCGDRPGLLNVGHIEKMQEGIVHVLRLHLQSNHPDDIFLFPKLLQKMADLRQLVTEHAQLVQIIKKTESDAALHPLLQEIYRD
The data set can be described thus: PPARα transactivation activity (GAL4-hPPARα LBD / UASx4-TK-LUC reporter in CV-1 cells). The format is cell-based. As to conditions: for Emax: CV-1, in the manner as described in Example 9, Table 26, read-out: PPARα (PPAR activating power); for PPARα transactivation activity: a relative value (control = 100%): compound at 10^−5 M, CV-1 cells, Table 25. The protocol: (§1) (1) Measurement of PPARα,γ,δ Transactivation Activity
(§2) PPARα,γ,δ transactivation activity of each compound [Examples 1-6 and known PPARδ agonist (L-16504: Berger, J., et al. (1999), J. Biol. Chem., 274:6718-6725)] was measured in the manner described below.
(§3) CV-1 was obtained from Tohoku University Aging Medical Laboratory, Medical Cell Collection Center. All test compounds were dissolved in dimethylsulfoxide (DMSO) to give a test sample of 0.1% concentration.
(§4) Receptor expression plasmid (GAL4-hPPARα, LBD GAL4-hPPARγ LBD, GAL4-hPPARδ LBD), Reporter plasmid (UASx4-TK-LUC), and β-galactosidase expression plasmid (βGAL) similar to Kliewer, S. A., et al., ((1992) Nature, 358:771-774) were employed.
(§5) CV-1 cells were seeded in 24 well culture plates at 2×10^5 cells per well, and cultured for 24 hours using 4%-fetal bovine serum(FBS)-added OPTI-MEM I Reduced Serum Medium (Life Technologies, 500 μL/well). Subsequently, the cells were washed with non serum-added OPTI-MEM. To the washed cells were added DNA-containing solution [the following components were contained in the one well solution (250 μl): 0.03 μg of GAL4-hPPARδ LBD, 0.25 μg of UASx4-TK-LUC, 0.35 μg of βGAL, and 2 μL of lipofection reagent, DMRIE-C (Life Technologies). These components were dissolved in OPTI-MEM and allowed to stand for 30 minutes at room temperature]. The cells were incubated for 5 hours at 37° C.
(§6) The cells were then incubated for 40 hours in 500 μL of fresh OPTI-MEM containing 4% FBS and the test compound (dissolved in 100% DMSO to reach a final concentration: 10^−4M or 10^−5M).
(§7) The culture medium was removed and the cells were washed with PBS twice. Cell lysates were produced using a solubilizing buffer (25 mM Tris-PO4 (pH 7.8), 15%v/v glycerol, 2% CHAPS, 1% Lecithin, 1% BSA, 4 mM EGTA (pH 8.0), 8 mM MgCl2, 1 mM DTT). A portion (20 μL) of the solution was transferred onto a 96-well plate. Subsequently, 100 μL of luciferase substrate solution (Piccagene: available from Nippon Gene Co., Ltd.) was added, and a luminous intensity per one sec. (luciferase activity) was measured by means of MLR-100 type Microluminoreader (available from Corona Electrics Co., Ltd.). Further, the activity caused by […] incorporation which was incorporated into the cells simultaneously with the incorporation of the luciferase gene was measured, for correcting variation of luciferase activity by the addition of the compound, utilizing the transfection efficiency of the incorporated gene. β-Galactosidase activity was measured by the following method: 50 μL of the solubilized sample was placed on another 96-well plate; 10 μL of ONPG (2-nitrophenyl-β-galactopyranoside) solution was added; incubation was carried out for 5 minutes at room temperature; 50 μL of a reaction stopping solution (1M sodium carbonate solution) was added; and the absorbance at 414 nm was measured.

Data set [2] has as its target T2, PPARγ (Homo sapiens, UniProt P37231).
T2 construct: Receptor expression plasmid (GAL4-hPPARα, LBD GAL4-hPPARγ LBD, GAL4-hPPARδ LBD); expressed in transfected cells; host or cells: CV-1 cells
T2 sequence (P37231 238-503 limits assumed): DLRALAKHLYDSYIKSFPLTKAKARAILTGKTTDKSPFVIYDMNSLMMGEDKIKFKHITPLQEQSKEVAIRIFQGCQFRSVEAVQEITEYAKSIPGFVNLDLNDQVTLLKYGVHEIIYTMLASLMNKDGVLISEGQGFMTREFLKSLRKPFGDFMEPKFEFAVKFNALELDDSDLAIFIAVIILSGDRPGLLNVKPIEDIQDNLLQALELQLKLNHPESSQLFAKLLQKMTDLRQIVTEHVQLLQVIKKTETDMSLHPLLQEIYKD
The data set can be described thus: PPARγ transactivation activity (GAL4-hPPARγ LBD / UASx4-TK-LUC reporter in CV-1 cells). The data set is classed as cell-based. The settings on record: for Emax: CV-1, in the manner as described in Example 9, Table 26, read-out: PPARγ (PPAR activating power); for PPARγ transactivation activity: a relative value (control = 100%): compound at 10^−5 M, CV-1 cells, Table 25. How it is done: In the same manner, relative ligand activities to PPARδ and γ transactivation activitis are calculated (see the below-mentioned Example 9).
as §1, §2, §3, §4, §5, §6, §7

For data set [3], the target named is T3, PPARδ (Homo sapiens, UniProt Q03181).
T3 construct: A chimeric receptor expression plasmid (GAL4-hPPARδ LBD); expressed in transfected cells; host or cells: CV-1 cells
T3 sequence (Q03181 211-439 limits assumed): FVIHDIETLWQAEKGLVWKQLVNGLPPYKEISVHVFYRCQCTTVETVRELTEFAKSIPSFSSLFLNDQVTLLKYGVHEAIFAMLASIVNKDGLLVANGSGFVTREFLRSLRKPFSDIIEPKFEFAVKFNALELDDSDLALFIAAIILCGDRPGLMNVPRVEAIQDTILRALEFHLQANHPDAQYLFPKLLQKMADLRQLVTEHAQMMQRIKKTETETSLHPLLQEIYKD
The data set can be described thus: PPARδ transactivation activity (GAL4-hPPARδ LBD / UASx4-TK-LUC reporter in CV-1 cells). The data set is classed as cell-based. The settings on record: for Emax: CV-1, 40 h, in the manner as described in Example 9, Table 26, read-out: PPARδ (PPAR activating power); for PPARδ transactivation activity: a relative value (control = 100%): compound at 10^−5 M, Table 25. How it is done:
A chimeric receptor expression plasmid (GAL4-hPPARδ LBD), a reporter plasmid (UASx4-TK-LUC) and β-galactosidase (β-GAL) are transfected into CV-1 cells by utilizing a lipofection reagent DMRIE-C (Life Technologies).
as §1
CV-1 was obtained from Tohoku University Aging Medical Laboratory, Medical Cell Collection Center.
as §5, §6, §7

Molecules are shown by their SMILES.

Consider `CC(C)c1oc(-c2ccc(Cl)cc2Cl)nc1CCC(=O)c1cccc(OC(C)(C)C(=O)O)c1` [Example 8-2, 2-[3-[3-[2-(2,4-Dichlorophenyl)-5-isopropyl-4-oxazolyl]propionyl]phenyloxy)-2-methylpropionic acid], for which the melting point (in general, the temperature, or range, at which the solid turns liquid) is 115 to 120 °C.

`CC(C)c1oc(-c2cc3ccccc3o2)nc1CCC(=O)c1ccc(OC(C)(C)C(=O)O)cc1` [Example 7-7, 2-[4-[3-[2-(2-Benzofuranyl)-5-isopropyl-4-oxazolyl]propionyl]phenyloxy]-2-methylpropionic acid]: the melting point was in the range of 135 to 139 °C. Besides, in data set [1], the Emax is 1%. For the same compound, the Emax in data set [2] came to 9%. Further, the Emax in data set [3] was 65 ± 2%.

Consider `CCCc1oc(-c2ccc(Cl)cc2)nc1CCC(=O)c1ccc(OC(C)(C)C(=O)O)cc1` [Example 2, 2-[4-[3-[2-(4-Chlorophenyl)-5-propyl-4-oxazolyl]propionyl]phenyloxy]-2-methylpropionic acid], for which the “PPARα transactivation activity: a relative value (control = 100%)” value in data set [1] was found to be 75 ± 4%. Also, the “PPARγ transactivation activity: a relative value (control = 100%)” value in data set [2] came to 51 ± 3%. Besides, the “PPARδ transactivation activity: a relative value (control = 100%)” value in data set [3] (CV-1 cells) was 93 ± 4%.

`CC(C)c1oc(-c2ccccc2Cl)nc1CCC(O)c1ccc(OC(C)(C)C(=O)O)cc1` (centres unmarked) [Example 4, 2-[4-[3-[2-(2-Chlorophenyl)-5-isopropyl-4-oxazolyl]-1-hydroxypropyl]phenyloxy]-2-methylpropionic acid]: the “PPARα transactivation activity: a relative value (control = 100%)” value in data set [1] came to 35%. Moreover, the “PPARγ transactivation activity: a relative value (control = 100%)” value in data set [2] is 26%. The “PPARδ transactivation activity: a relative value (control = 100%)” value in data set [3] (CV-1 cells) is given as 23%.

With `CC(C)c1oc(-c2ccccc2Cl)nc1CCC(=NO)c1ccc(OC(C)(C)C(=O)O)cc1` [Example 3, 2-[4-[3-[2-(2-Chlorophenyl)-5-isopropyl-4-oxazolyl](1-hydroxyimino)propyl]phenyloxy]-2-methyl-propionic acid], the “PPARα transactivation activity: a relative value (control = 100%)” value in data set [1] amounted to 10%. For the same compound, the “PPARγ transactivation activity: a relative value (control = 100%)” value in data set [2] is recorded as 16%. The “PPARδ transactivation activity: a relative value (control = 100%)” value in data set [3] (CV-1 cells) was 19%.

As to `CC(C)c1oc(-c2ccc3ccccc3c2O)nc1CCC(=O)c1ccc(OC(C)(C)C(=O)O)cc1` [Example 7-9, 2-[4-[3-[2-(1-Hydroxy-2-naphthyl)-5-isopropyl-4-oxazolyl]propionyl]phenyloxy]-2-methylpropionic acid], the Emax in data set [1] amounted to 8%; in data set [2], 5 ± 1%; in data set [3], 80 ± 5%.

For `CC(C)c1oc(-c2cccc(Cl)c2Cl)nc1CCC(=O)c1ccc(OC(C)(C)C(=O)O)cc1` [Example 7-6, 2-[4-[3-[2-(2,3-Dichlorophenyl)-5-isopropyl-4-oxazolyl]propionyl]phenyloxy]-2-methylpropionic acid], the Emax in data set [1] worked out at 8%; in data set [2], 19%; in data set [3], 96 ± 13%. Moreover, in data set [3] (CV-1 cells, GAL4-hPPARδ LBD, 40 hours incubation, luciferase activity with 10^-4 M L-165041 set to 100%), the “PPARδ activating effect (transactivation activity) as compared with L-165041” value is on record as “same or higher”.

In the case of `CC(C)c1oc(-c2cc3ccccc3cc2O)nc1CCC(=O)c1ccc(OC(C)(C)C(=O)O)cc1` [Example 7-11, 2-[4-[3-[2-(3-Hydroxy-2-naphthyl)-5-isopropyl-4-oxazolyl]propionyl]phenyloxy]-2-methylpropionic acid], the Emax in data set [1] is 29 ± 3%; in data set [2], 18 ± 4%; in data set [3], 85 ± 1%.

`CC(C)c1oc(-c2ccccc2Cl)nc1CCCc1ccc(OC(C)(C)C(=O)O)cc1` [Example 6, 2-[4-[3-[2-(2-Chlorophenyl)-5-isopropyl-4-oxazolyl]propyl]phenyloxy]-2-methylpropionic acid]: the “PPARα transactivation activity: a relative value (control = 100%)” value in data set [1] is given as 98 ± 6%. Also, in data set [2], the “PPARγ transactivation activity: a relative value (control = 100%)” value is recorded as 93 ± 1%. Moreover, the “PPARδ transactivation activity: a relative value (control = 100%)” value in data set [3] (CV-1 cells) was determined as 109 ± 10%.

`CC(C)c1oc(-c2ccc(Cl)cc2Cl)nc1CCC(=O)c1ccc(OC(C)(C)C(=O)O)cc1` [Example 7-4, 2-[4-[3-[2-(2,4-Dichlorophenyl)-5-isopropyl-4-oxazolyl]propionyl]phenyloxy]-2-methylpropionic acid]: the melting point was in the range of 100 to 105 °C. For the same compound, in data set [1], the Emax is 1%. The Emax in data set [2] stood at 2%. For the same compound, the Emax in data set [3] was 86 ± 10%. Moreover, the “activity to PPARδ relative to activity to PPARα and γ (selectivity)” value in data set [3] (CV-1 cells, GAL4-hPPAR LBD reporter, relative activities vs control reagents) is recorded as “higher”.

The record behind these values is patent publication US6787552B2, “PPAR delta activators” (Nippon Chemiphar Co., Ltd., priority 2000, dated 2004).
